Here are results for 35 compounds from patent US20140141099A1, “DRUG DISCOVERY METHODS” (Vertex Pharmaceuticals Incorporated, priority 2007, published 2014).

In one test the target is Aurora-1 (Aurora B) (Homo sapiens, UniProt Q96GD4). The test can be described thus: Aurora-1 (Aurora B) Inhibition Assay (Radiometric). Format: biochemical. The method, then: An assay buffer solution was prepared which consisted of 25 mM HEPES (pH 7.5), 10 mM MgCl2, 0.1% BSA and 10% glycerol. […] To 22 μL of the Aurora-B solution, in a 96-well plate, was added 2 μl of a compound stock solution in DMSO and the mixture allowed to equilibrate for 10 minutes at 25° C. The enzyme reaction was initiated by the addition of 16 μl stock [γ-^33P]-ATP solution (˜20 nCi/μL) prepared in assay buffer, to a final assay concentration of 800 μM. The reaction was stopped after 3 hours by the addition of 16 μL 500 mM phosphoric acid and the levels of ^33P incorporation into the peptide substrate were determined by the following method.
Chain of Aurora-1 (Aurora B) (Q96GD4 whole entry): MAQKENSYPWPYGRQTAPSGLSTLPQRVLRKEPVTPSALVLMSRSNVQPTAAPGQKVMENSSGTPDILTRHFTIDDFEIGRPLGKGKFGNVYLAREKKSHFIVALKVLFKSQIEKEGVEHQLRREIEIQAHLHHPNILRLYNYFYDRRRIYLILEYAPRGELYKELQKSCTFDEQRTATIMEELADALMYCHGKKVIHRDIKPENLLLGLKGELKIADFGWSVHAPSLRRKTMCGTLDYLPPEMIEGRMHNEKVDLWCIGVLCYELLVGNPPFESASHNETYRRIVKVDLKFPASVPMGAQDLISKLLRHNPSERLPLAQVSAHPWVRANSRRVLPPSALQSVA
A phosphocellulose 96-well plate (Millipore, Cat no. MAPHNOB50) was pre-treated with 100 μL of a 100 mM phosphoric acid prior to the addition of the enzyme reaction mixture (40 μL). The solution was left to soak on to the phosphocellulose membrane for 30 minutes and the plate subsequently washed four times with 200 μL of a 100 mM phosphoric acid. […] Levels of non-enzyme catalyzed background radioactivity were determined by adding 16 μL of the 500 mM phosphoric acid to control wells, containing all assay components (which acts to denature the enzyme), prior to the addition of the [γ-^33P]-ATP solution. Levels of enzyme catalyzed ^33P incorporation were calculated by subtracting mean background counts from those measured at each inhibitor concentration. […] Ki values were calculated from initial rate data by non-linear regression using the Prism software package (Prism 3.0, Graphpad Software, San Diego, Calif.).

The target of the next test is T1, Aurora-2 (Aurora A) (Homo sapiens, UniProt O14965).
T1 sequence (O14965 1-403): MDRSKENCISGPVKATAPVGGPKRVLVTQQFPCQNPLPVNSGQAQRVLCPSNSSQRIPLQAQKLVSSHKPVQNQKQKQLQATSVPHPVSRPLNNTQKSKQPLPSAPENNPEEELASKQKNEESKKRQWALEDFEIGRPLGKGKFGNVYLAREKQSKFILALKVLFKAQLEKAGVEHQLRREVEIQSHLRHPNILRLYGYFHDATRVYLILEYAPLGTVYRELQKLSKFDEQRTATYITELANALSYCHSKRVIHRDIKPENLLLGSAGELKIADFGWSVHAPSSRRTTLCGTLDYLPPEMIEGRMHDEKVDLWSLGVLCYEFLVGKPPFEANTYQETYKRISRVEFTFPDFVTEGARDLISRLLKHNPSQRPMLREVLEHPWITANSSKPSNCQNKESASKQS
Description: Aurora-2 (Aurora A) Inhibition Assay (coupled enzyme assay). It is filed as biochemical. As for the experimental part:
Assays were carried out in a mixture of 100 mM Hepes (pH7.5), 10 mM MgCl2, 1 mM DTT, 25 mM NaCl, 2.5 mM phosphoenolpyruvate, 300 μM NADH, 30 μg/ml pyruvate kinase and 10 μg/ml lactate dehydrogenase. […] Assays were carried out at 30° C. and in the presence of 40 nM Aurora-2.
An assay stock buffer solution was prepared containing all of the reagents listed above, with the exception of Aurora-2 and the test compound of interest. […] The plate was preincubated for 10 minutes at 30° C. and the reaction initiated by addition of 10 μl of Aurora-2. Initial reaction rates were determined with a Molecular Devices SpectraMax Plus plate reader over a 10 minute time course. IC50 and Ki data were calculated from non-linear regression analysis using the Prism software package (GraphPad Prism version 3.0cx for Macintosh, GraphPad Software, San Diego Calif., USA).

The test system of a further test is tumor. Description: Animal model of tumor growth inhibition, once a week dosing. Format: in vivo. From the text: Applicants have discovered that for compounds that display a […] binding mechanism with slow, tight-binding kinetics, the Ki* value is a much better predictive tool for cell potency than is Ki. In some embodiments, such compounds have a strong pharmacodynamic profile, resulting in long term cell activity that would allow for shorter dosing regimens in vivo. A typical dosing regimen for Aurora inhibitors in animal models is, e.g., at least once a day dosing. In one embodiment, applicants' invention allows for selecting compounds that may be dosed less than once a day.

The structures appear in SMILES notation. Where two headings read alike, the source gives them in different places.

In general, Ki refers to a dissociation constant, usually derived from enzyme kinetics or from competition with a known ligand. In the case of `CCC(=O)Nc1ccc(Sc2nc(Nc3cc(C4CC4)n[nH]3)cc(N3CCC(N4CCCC4)CC3)n2)cc1` [Compound 18], the Ki is 14.5 nM on Aurora-1 (Aurora B) and 2.75 nM on Aurora-2 (Aurora A) (read-out: Aurora A Ki).

On to `CCC(=O)Nc1ccc(Sc2nc(Nc3cc(C)n[nH]3)cc(N3CCC(C#N)(c4ccccc4OC)CC3)n2)cc1` [Compound 25], for which the Ki on Aurora-1 (Aurora B) came out at 230 nM; at Aurora-2 (Aurora A) (read-out: Aurora A Ki) it was 0.895 nM.

Consider `COc1cccc(Sc2nc(NC3=NN=C(C)C3)cc(N3CCN(C(C)(C)C)CC3)n2)c1` [Compound 4], for which the Ki turned out to be 145 nM at Aurora-1 (Aurora B) and 8.5 nM on Aurora-2 (Aurora A) (read-out: Aurora A Ki).

As for `Cc1cc(Nc2cc(N3CCN(C(C)(C)C)CC3)nc(Sc3ccc(NC(=O)C4CCCC4)cc3)n2)[nH]n1` [Compound 5], the results for the Ki at Aurora-1 (Aurora B) and on Aurora-2 (Aurora A) (read-out: Aurora A Ki) were 21.2 nM and 3.47 nM, respectively.

For the compound `C#CC(C)(C)N1CCN(c2cc(Nc3cc(C)n[nH]3)nc(Sc3ccc(NC(=O)CC)cc3)n2)CC1` [Compound 6], the figures for the Ki at Aurora-1 (Aurora B) and on Aurora-2 (Aurora A) (read-out: Aurora A Ki) were 14 nM and 1.82 nM, respectively.

For the compound `Cc1cc(Nc2cc(N3CCN(C(C)(C)C)CC3)nc(Sc3ccc(NC(=O)C4CC4)cc3)n2)[nH]n1` [Compound 3], the Ki at Aurora-1 (Aurora B) worked out at 22.3 nM; at Aurora-2 (Aurora A) (read-out: Aurora A Ki), 2.12 nM.

Take `CCC(=O)Nc1ccc(Sc2nc(Nc3cc(C)n[nH]3)cc(N3CC(C)(OC(C)C)C3)n2)cc1` [Compound 28]: the results for the Ki at Aurora-1 (Aurora B) and on Aurora-2 (Aurora A) (read-out: Aurora A Ki) were 14.5 nM and 1.35 nM, respectively.

With `CCC(=O)Nc1ccc(Sc2nc(NCCN3CCCCC3)cc(Nc3cc(C)n[nH]3)n2)cc1` [Compound 1], the Ki at Aurora-1 (Aurora B) was determined as 34.5 nM; at Aurora-2 (Aurora A) (read-out: Aurora A Ki), 8.85 nM.

Regarding `CCC(=O)Nc1ccc(Sc2nc(Nc3cc(C)n[nH]3)cc(N3CCC(O)(c4cc(F)ccc4OC)CC3)n2)cc1` [Compound 24], the Ki on Aurora-1 (Aurora B) stood at 140 nM; at Aurora-2 (Aurora A) (read-out: Aurora A Ki) it was 0.365 nM.

For the compound `Cc1cc(Nc2cc(N3CCC(N4CCCC4)CC3)nc(Sc3ccc4ccccc4c3)n2)[nH]n1` [Compound 33], the Ki stood at 64 nM on Aurora-1 (Aurora B) and 6.85 nM on Aurora-2 (Aurora A) (read-out: Aurora A Ki).

Turning to `CCC(=O)Nc1ccc(Sc2nc(Nc3cc(C)n[nH]3)cc(N3CCN(C(C)(C)C)CC3)n2)cc1` [Compound 2], the figures for the Ki on Aurora-1 (Aurora B) and on Aurora-2 (Aurora A) were 11.2 nM and 2.12 nM, respectively. The tumor growth inhibition entry in the test with tumor is “very good tumor growth inhibition”.

For the compound `CCC(=O)Nc1ccc(Sc2nc(Nc3cc(C)n[nH]3)cc(N3CCN(C(C)(C)CC)CC3)n2)cc1` [Compound 9], the Ki at Aurora-1 (Aurora B) was 19.3 nM; on Aurora-2 (Aurora A) (read-out: Aurora A Ki) it was 2.6 nM.

For the compound `Cc1cc(Nc2cc(N3CC(O)(C4CC4)C3)nc(Sc3ccc4ccccc4c3)n2)n[nH]1` [Compound 34], the Ki was determined as 51 nM on Aurora-1 (Aurora B) and 0.63 nM on Aurora-2 (Aurora A) (read-out: Aurora A Ki).

Turning to `Cc1cc(Nc2cc(N3CCC3)nc(Sc3ccc(NC(=O)CC(F)(F)F)cc3)n2)n[nH]1` [Compound 12], the Ki at Aurora-1 (Aurora B) is 7.17 nM; on Aurora-2 (Aurora A) (read-out: Aurora A Ki) it was 0.707 nM.

For the compound `CCC(=O)Nc1ccc(Sc2nc(Nc3cc(C)n[nH]3)cc(N3CC=C(C(C)(C)C)CC3)n2)cc1` [Compound 23], the Ki worked out at 612 nM at Aurora-1 (Aurora B) and 0.524 nM on Aurora-2 (Aurora A) (read-out: Aurora A Ki).

Consider `CCC(=O)Nc1ccc(Sc2nc(Nc3cc(C)n[nH]3)cc(N3CCC4(CCN(C)C4)CC3)n2)cc1` [Compound 17], for which the Ki on Aurora-1 (Aurora B) was found to be 59.7 nM; on Aurora-2 (Aurora A) (read-out: Aurora A Ki), 2.05 nM.

For `CCC(=O)Nc1ccc(Sc2nc(Nc3cc(C)n[nH]3)cc(N3CC4CN(C(C)C)CC4C3)n2)cc1` (stereo not drawn) [Compound 19], the Ki at Aurora-1 (Aurora B) was 34.5 nM; on Aurora-2 (Aurora A) (read-out: Aurora A Ki), 5.4 nM.

Consider `CCC(=O)Nc1ccc(Sc2nc(Nc3cc(C)n[nH]3)cc(N3CC(C)(N4CCCC4)C3)n2)cc1` [Compound 22], for which the values for the Ki at Aurora-1 (Aurora B) and at Aurora-2 (Aurora A) (read-out: Aurora A Ki) were 5 nM and 0.68 nM, respectively.

With `Cc1cc(Nc2cc(N3CCC(F)C3)nc(Sc3ccc(NC(=O)CC(F)(F)F)cc3)n2)[nH]n1` (stereo not drawn) [Compound 32], the values for the Ki at Aurora-1 (Aurora B) and at Aurora-2 (Aurora A) (read-out: Aurora A Ki) were 4 nM and 0.35 nM, respectively.

Consider `CCC(=O)Nc1ccc(Sc2nc(Nc3cc(C)n[nH]3)cc(N3CCC(O)(C(C)(C)C)C3)n2)cc1` (stereo not drawn) [Compound 27], for which the results for the Ki on Aurora-1 (Aurora B) and at Aurora-2 (Aurora A) (read-out: Aurora A Ki) were 102 nM and 0.35 nM, respectively.

On to `CCC(=O)Nc1ccc(Sc2nc(Nc3cc(C)n[nH]3)cc(N3CC4(C3)OCC4(C)C)n2)cc1` [Compound 26], for which the Ki at Aurora-1 (Aurora B) is 25 nM; at Aurora-2 (Aurora A) (read-out: Aurora A Ki) it was 0.735 nM.

In the case of `CCC(=O)Nc1ccc(Sc2nc(Nc3cc(C)n[nH]3)cc(N3CCC(N(C)C(C)(C)C)CC3)n2)cc1` [Compound 15], the figures for the Ki on Aurora-1 (Aurora B) and on Aurora-2 (Aurora A) (read-out: Aurora A Ki) were 31.5 nM and 2.5 nM, respectively.

Consider `CCC(=O)Nc1ccc(Sc2nc(Nc3cc(C)n[nH]3)cc(N3CCC(NC(C)(C)C)CC3)n2)cc1` [Compound 11], for which the Ki was 28 nM on Aurora-1 (Aurora B) and 7.7 nM at Aurora-2 (Aurora A) (read-out: Aurora A Ki).

For `CCC(=O)Nc1ccc(Sc2nc(Nc3cc(C)n[nH]3)cc(N3CCN(C(C)(C)CO)CC3)n2)cc1` [Compound 8], the Ki on Aurora-1 (Aurora B) was found to be 15.3 nM; on Aurora-2 (Aurora A) (read-out: Aurora A Ki) it was 2.77 nM.

With `CCC(=O)Nc1ccc(Sc2nc(Nc3cc(C)n[nH]3)cc(N3CC(O)(C(C)(C)C)C3)n2)cc1` [Compound 20], the Ki at Aurora-1 (Aurora B) worked out at 4.5 nM; on Aurora-2 (Aurora A) (read-out: Aurora A Ki), 0.35 nM.

As to `CCC(=O)Nc1ccc(Sc2nc(Nc3cc(C)n[nH]3)cc(N3CC(O)(C4CC4)C3)n2)cc1` [Compound 21], on Aurora-2 (Aurora A) (read-out: Aurora A Ki), the Ki was determined as 0.387 nM.

On to `CCC(=O)Nc1ccc(Sc2nc(Nc3cc(C)n[nH]3)cc(N3CC(O)(C(C)C)C3)n2)cc1` [Compound 30], for which, at Aurora-2 (Aurora A) (read-out: Aurora A Ki), the Ki turned out to be 1.15 nM.

Regarding `CCC(=O)Nc1ccc(Sc2nc(Nc3cc(C)n[nH]3)cc(N3CCN(C(C)(C)CF)CC3)n2)cc1` [Compound 10], the Ki at Aurora-1 (Aurora B) came to 22.5 nM; at Aurora-2 (Aurora A) (read-out: Aurora A Ki) it was 1.98 nM.

Turning to `CCOc1ccc(Sc2nc(Nc3cc(C)n[nH]3)cc(N3CCN(C(C)(C)C)CC3)n2)cc1` [Compound 36], the Ki was found to be 45.5 nM at Aurora-1 (Aurora B) and 5.2 nM at Aurora-2 (Aurora A) (read-out: Aurora A Ki).

Turning to `CCC(=O)Nc1ccc(Sc2nc(Nc3cc(C)n[nH]3)cc(N3CC[C@H](N4CCCC4)C3)n2)cc1` [Compound 16], the Ki came out at 97.7 nM at Aurora-1 (Aurora B) and 5.75 nM on Aurora-2 (Aurora A) (read-out: Aurora A Ki).

With `Cc1cc(Nc2cc(N3CC(F)(C4CC4)C3)nc(Sc3ccc(NC(=O)CC(F)(F)F)cc3)n2)[nH]n1` [Compound 35], the results for the Ki on Aurora-1 (Aurora B) and at Aurora-2 (Aurora A) (read-out: Aurora A Ki) were 6.78 nM and 0.354 nM, respectively.

As for `Cc1cc(Nc2cc(N3CCC3)nc(Sc3ccc(NC(=O)c4ccccc4C(F)(F)F)cc3)n2)[nH]n1` [Compound 13], the Ki came to 4.47 nM on Aurora-1 (Aurora B) and 0.382 nM on Aurora-2 (Aurora A) (read-out: Aurora A Ki).

With `Cc1cc(Nc2cc(N3CC(O)(C4CC4)C3)nc(Sc3ccc(NC(=O)C4CC4)cc3)n2)n[nH]1` [Compound 31], the results for the Ki at Aurora-1 (Aurora B) and at Aurora-2 (Aurora A) (read-out: Aurora A Ki) were 7.05 nM and 0.865 nM, respectively.

For the compound `CCC(=O)Nc1ccc(Sc2nc(Nc3cc(C)n[nH]3)cc(N3CCC(N4CCCC4)CC3)n2)cc1` [Compound 7], the Ki at Aurora-1 (Aurora B) came to 50.3 nM; on Aurora-2 (Aurora A) (read-out: Aurora A Ki), 4.6 nM.

As to `CCC(=O)Nc1ccc(Sc2nc(Nc3cc(C)n[nH]3)cc(N3CCC(O)(C(C)(C)C)CC3)n2)cc1` [Compound 14], the Ki on Aurora-1 (Aurora B) amounted to 13.5 nM; on Aurora-2 (Aurora A) (read-out: Aurora A Ki) it was 0.595 nM.
